Laboratory results: US12115178B2, “Acylated active agents and methods of their use for the treatment of autoimmune disorders” (Flagship Pioneering Innovations V, Inc., priority 2018, dated 2024)

How the values were obtained:
Assay type in all cases: in vitro ADME
[1] = Assay 1. Stability in Simulated Gastric Fluid (SGF)
In short: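 Compound at 1 μM final (from 1 mM DMSO stock) incubated at 37° C in SGF: NaCl medium at pH 1.6 with FaSSIF powder and 0.1 mg/mL pepsin, prepared fresh. Aliquots taken at T0 and regular intervals, quenched with equal volume acetonitrile; LC/MS gives degradation rate.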

[2] = Assay 2. Stability in Simulated Intestinal Fluid (SIF); settings: SIF pH 6.7 with pancreatin, 1 μM, 37° C.
In short: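 Compounds at 1 µM (from 1 mM DMSO stock) were incubated at 37 °C with agitation in simulated intestinal fluid: FaSSIF in pH 6.7 phosphate buffer with pancreatin. Aliquots taken from T0 onward were quenched with acetonitrile and analyzed by LC/MS for degradation rate.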

[3] = Assay 3. In vitro Colonic Material Stability Assay; settings: colonic material slurry, anaerobic, 1 or 10 μM
[4] = SGF pH 1.6 with pepsin, 1 μM, 37° C.

SMILES | Assay 1 (SGF) (% Remaining @ 1 hour) ([1]; Batch 1, SGF) | Assay 1 (SGF) (% Remaining @ 1 hour) ([1]; Batch 2, SGF) | Assay 2 (SIF) (% @ Remaining 4 hours) [2] | Assay 3 (% Remaining at 24 h) [3] | Assay 1 (SGF) (% Remaining @ 1 hour) [1, 4]
CCC(=O)O[C@H]1[C@H](OC(=O)CC)[C@H](OC(=O)CCc2c[nH]c3ccccc23)O[C@@H](C)[C@H]1OC(=O)CC [Compound 123, (2S,3S,4R,5R,6S)-6-methyl-3,4,5-tris(propanoyloxy)oxan-2-yl 3-(1H-indol-3-yl)propanoate] | C (>75% of the tested compound remaining) | B (25-75% of the tested compound remaining) | C (>75% of the tested compound remaining) | A (<25% of the tested compound remaining) | 
CCC(=O)O[C@@H]1[C@@H](OC(=O)CC)[C@@H](OC(=O)CCc2c[nH]c3ccccc23)OC[C@@H]1OC(=O)CC [Compound 126, (2R,3R,4S,5S)-3,4,5-tris(propanoyloxy)oxan-2-yl 3-(1H-indol-3-yl)propanoate] |  |  | A (<25% of the tested compound remaining) | A (<25% of the tested compound remaining) | C (>75% of the tested compound remaining)
O=C(CCc1c[nH]c2ccccc12)O[C@H]1OC[C@H](OC(=O)CCc2c[nH]c3ccccc23)[C@H](OC(=O)CCc2c[nH]c3ccccc23)[C@H]1OC(=O)CCc1c[nH]c2ccccc12 [Compound 149, (2R,3R,4S,5S)-3,4,5-tris({[3-(1H-indol-3-yl)propanoyl]oxy})oxan-2-yl 3-(1H-indol-3-yl)propanoate] |  |  | A (<25% of the tested compound remaining) | A (<25% of the tested compound remaining) | B (25-75% of the tested compound remaining)
CO[C@H]1O[C@H](COC(C)=O)[C@@H](OC(C)=O)[C@H](OC(C)=O)[C@@H]1OC(C)=O [Compound 161, (2R,3R,4S,5S,6S)-2-(acetoxymethyl)-6-methoxytetrahydro-2H-pyran-3,4,5-triyl triacetate] |  |  | C (>75% of the tested compound remaining) | B (25-75% of the tested compound remaining) | C (>75% of the tested compound remaining)
CC(=O)OC[C@H]1O[C@@H](OC(C)=O)[C@H](N)[C@@H](OC(C)=O)[C@@H]1OC(C)=O [Compound 162, (2S,3R,4R,5S,6R)-6-(acetoxymethyl)-3-aminotetrahydro-2H-pyran-2,4,5-triyl triacetate] |  |  | A (<25% of the tested compound remaining) | C (>75% of the tested compound remaining) | C (>75% of the tested compound remaining)
CC(=O)O[C@H]1O[C@H](C(=O)O)[C@@H](OC(C)=O)[C@H](OC(C)=O)[C@H]1OC(C)=O [Compound 163, (2S,3S,4S,5R,6R)-3,4,5,6-tetraacetoxytetrahydro-2H-pyran-2-carboxylic acid] |  |  | C (>75% of the tested compound remaining) | B (25-75% of the tested compound remaining) | C (>75% of the tested compound remaining)
CCC(=O)Oc1cc(OC(=O)CC)c2c(=O)c(O)c(-c3ccc(OC(=O)CC)c(OC(=O)CC)c3)oc2c1 [Compound 165, 2-[3,4-bis(propanoyloxy)phenyl]-3-hydroxy-4-oxo-7-(propanoyloxy)-4H-chromen-5-yl propanoate] |  |  | A (<25% of the tested compound remaining) | A (<25% of the tested compound remaining) | B (25-75% of the tested compound remaining)
CCCC(=O)Oc1ccc(-c2oc3cc(OC(=O)CCC)cc(OC(=O)CCC)c3c(=O)c2OC(=O)CCC)cc1 [Compound 166, 4-[3,5,7-tris(butanoyloxy)-4-oxo-4H-chromen-2-yl]phenyl butanoate] |  |  | A (<25% of the tested compound remaining) | A (<25% of the tested compound remaining) | B (25-75% of the tested compound remaining)
CCC(=O)Oc1ccc(-c2oc3cc(OC(=O)CC)cc(OC(=O)CC)c3c(=O)c2OC(=O)CC)cc1 [Compound 167, 4-[4-oxo-3,5,7-tris(propanoyloxy)-4H-chromen-2-yl]phenyl propanoate] |  |  | A (<25% of the tested compound remaining) | A (<25% of the tested compound remaining) | B (25-75% of the tested compound remaining)
CCC(=O)Oc1ccc(-c2cc(=O)c3c(O)cc(OC(=O)CC)cc3o2)cc1 [Compound 168, 5-hydroxy-4-oxo-2-[4-(propanoyloxy)phenyl]-4H-chromen-7-yl propanoate] |  |  | A (<25% of the tested compound remaining) | A (<25% of the tested compound remaining) | B (25-75% of the tested compound remaining)
CCCC(=O)Oc1ccc(-c2cc(=O)c3c(OC(=O)CCC)cc(OC(=O)CCC)cc3o2)cc1 [Compound 170, 5-(butanoyloxy)-2-[4-(butanoyloxy)phenyl]-4-oxo-4H-chromen-7-yl butanoate] |  |  | A (<25% of the tested compound remaining) | A (<25% of the tested compound remaining) | B (25-75% of the tested compound remaining)
CCC(=O)Oc1ccc(-c2cc(=O)c3c(OC(=O)CC)cc(OC(=O)CC)cc3o2)cc1 [Compound 172, 4-oxo-7-(propanoyloxy)-2-[4-(propanoyloxy)phenyl]-4H-chromen-5-yl propanoate] |  |  | A (<25% of the tested compound remaining) | B (25-75% of the tested compound remaining) | C (>75% of the tested compound remaining)
CCCC(=O)O[C@H]1[C@@H](Oc2ccc(N)cc2C(=O)O)OC[C@@H](OC(=O)CCC)[C@H]1OC(=O)CCC [Compound 185, 5-amino-2-(((2R,3R,4R,5R)-3,4,5-tris(butyryloxy)tetrahydro-2H-pyran-2-yl)oxy)benzoic acid] |  |  | B (25-75% of the tested compound remaining) | B (25-75% of the tested compound remaining) | C (>75% of the tested compound remaining)
CCCC(=O)O[C@@H]1[C@@H](OC(=O)CCC)[C@H](Oc2ccccc2C(=O)O)OC[C@H]1OC(=O)CCC [Compound 186, 2-{[(2S,3R,4S,5R)-3,4,5-tris(butanoyloxy)oxan-2-yl]oxy}benzoic acid] |  |  | A (<25% of the tested compound remaining) | A (<25% of the tested compound remaining) | C (>75% of the tested compound remaining)
CCCC(=O)Oc1cc(OC(=O)CCC)c2c(c1)O[C@H](c1ccc(OC(=O)CCC)c(OC(=O)CCC)c1)[C@H](OC(=O)CCC)C2 [Compound 193, (2R,3R)-2-[3,4-bis(butanoyloxy)phenyl]-5,7-bis(butanoyloxy)-3,4-dihydro-2H-1-benzopyran-3-yl butanoate] |  |  | A (<25% of the tested compound remaining) | A (<25% of the tested compound remaining) | C (>75% of the tested compound remaining)
